How the values were obtained:
[1] = system: Methicillin Resistant Staphylococcus aureus strain USA 200; assay: Minimum inhibitory concentration (MIC), CLSI broth micro-dilution, S. aureus; format: cell-based; details: Staphylococcus aureus, MRSA / USA200; Table 6; MRSA USA 200; cation adjusted Mueller Hinton Broth + 0.002% Tween-80; 35° C., 22 hours
Procedure, shortened: (§1)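 Antibacterial potency is measured as MIC by the CLSI broth dilution method. Bacteria at OD600 0.0005 in Tween-80-supplemented cation-adjusted Mueller Hinton broth face ten twofold compound dilutions for 22 h at 35° C.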

[2] = system: Escherichia coli ATCC 25922; assay: Minimum inhibitory concentration (MIC), CLSI broth micro-dilution, E. coli; format: cell-based; details: Escherichia coli
Procedure, shortened: as §1

[3] = ATCC25922, 22 h, Table 6, cation adjusted Mueller Hinton Broth + 0.002% Tween-80, 35° C.

Row | SMILES | MIC [1] [µM] | MIC [2, 3] [µM] | MIC ([2]; ATCC25922, Table 6, cation adjusted Mueller Hinton Broth + 0.002% Tween-80, 35° C., 22 hours) [µM]
1 | CCCCCCCCc1ccc(C(=O)N[C@@H](CCC(=O)N(C)C)C(=O)N(C)[C@@H]2C(=O)N[C@@H](C)C(=O)N[C@H](C(=O)NCC#N)Cc3ccc(OCCN)c(c3)-c3cc2ccc3OCCN)c(C)c1 (racemic) [Compound 444, rac-(2S)-N,N′,N′-trimethyl-2-[(2-methyl-4-octyl-benzoyl)amino]-N-[rac-(7S,10S,13S)-3,18-bis(2-aminoethoxy)-13-(cyanomethylcarbamoyl)-10-methyl-8,11-dioxo-9,12-diazatricyclo[13.3.1.12,6]icosa-1(19),2,4,6(20),15,17-hexaen-7-yl]pentanediamide] | 0.064 | 4.1 | 
2 | COCCOc1ccc(-c2nc(C)c(C(=O)N[C@@H](CCN)C(=O)N(C)[C@@H]3C(=O)N[C@@H](C)C(=O)N[C@H](C(=O)NCC#N)Cc4ccc(OCCN)c(c4)-c4cc3ccc4OCCN)c(C)n2)cc1 (racemic) [Compound 333, rac-(8S,11S,14S)-3,18-bis(2-aminoethoxy)-N-(cyanomethyl)-11-methyl-14-[methyl-[rac-(2S)-4-amino-2-[[2-[4-(2-methoxyethoxy)phenyl]-4,6-dimethyl-pyrimidine-5-carbonyl]amino]butanoyl]amino]-10,13-dioxo-9,12-diazatricyclo[13.3.1.12,6]icosa-1(18),2(20),3,5,15(19),16-hexaene-8-carboxamide] | 1 |  | 2
3 | Cc1nc(-c2ccc(C(C)(C)C)cc2)nc(C)c1C(=O)N[C@@H](CO)C(=O)N[C@@H](CCN)C(=O)N(C)[C@@H]1C(=O)N[C@@H](C)C(=O)N[C@H](C(=O)NCC#N)Cc2ccc(OCCN)c(c2)-c2cc1ccc2OCCN (racemic) [Compound 465, rac-(8S,11S,14S)-3,18-bis(2-aminoethoxy)-N-(cyanomethyl)-11-methyl-14-[methyl-[rac-(2S)-4-amino-2-[[rac-(2S)-2-[[2-(4-tert-butylphenyl)-4,6-dimethyl-pyrimidine-5-carbonyl]amino]-3-hydroxy-propanoyl]amino]butanoyl]amino]-10,13-dioxo-9,12-diazatricyclo[13.3.1.12,6]icosa-1(18),2(20),3,5,15(19),16-hexaene-8-carboxamide] | 0.047 | 4 | 
4 | Cc1nc(-c2ccc(OC3CCCCC3)cc2)nc(C)c1C(=O)N[C@@H](CCC(N)=O)C(=O)N(C)[C@@H]1C(=O)N[C@@H](C)C(=O)N[C@H](C(=O)NCC#N)Cc2ccc(OCCN)c(c2)-c2cc1ccc2OCCN (racemic) [Compound 505, rac-(2S)-2-[[2-[4-(cyclohexoxy)phenyl]-4,6-dimethyl-pyrimidine-5-carbonyl]amino]-N-methyl-N-[rac-(7S,10S,13S)-3,18-bis(2-aminoethoxy)-13-(cyanomethylcarbamoyl)-10-methyl-8,11-dioxo-9,12-diazatricyclo[13.3.1.12,6]icosa-1(19),2,4,6(20),15,17-hexaen-7-yl]pentanediamide] | 0.094 | 1.5 | 
5 | Cc1cc(-c2ccc(OC(C)C)cc2)nc(C)c1C(=O)N[C@@H](CCN)C(=O)N(C)[C@@H]1C(=O)N[C@@H](C)C(=O)N[C@H](C(=O)NCC#N)Cc2ccc(OCCN)c(c2)-c2cc1ccc2OCCN (racemic) [Compound 360, rac-(8S,11S,14S)-3,18-bis(2-aminoethoxy)-N-(cyanomethyl)-11-methyl-14-[methyl-[rac-(2S)-4-amino-2-[[6-(4-isopropoxyphenyl)-2,4-dimethyl-pyridine-3-carbonyl]amino]butanoyl]amino]-10,13-dioxo-9,12-diazatricyclo[13.3.1.12,6]icosa-1(18),2(20),3,5,15(19),16-hexaene-8-carboxamide] | 0.066 | 0.26 | 
6 | Cc1nc(N2CC(C(C)(C)C)C2)nc(C)c1C(=O)N[C@@H](CCN)C(=O)N(C)[C@@H]1C(=O)N[C@@H](C)C(=O)N[C@H](C(=O)NCC#N)Cc2ccc(OCCN)c(c2)-c2cc1ccc2OCCN (racemic) [Compound 316, rac-(8S,11S,14S)-3,18-bis(2-aminoethoxy)-N-(cyanomethyl)-11-methyl-14-[methyl-[rac-(2S)-4-amino-2-[[2-(3-tert-butylazetidin-1-yl)-4,6-dimethyl-pyrimidine-5-carbonyl]amino]butanoyl]amino]-10,13-dioxo-9,12-diazatricyclo[13.3.1.12,6]icosa-1(18),2(20),3,5,15(19),16-hexaene-8-carboxamide] | 0.38 | 1.5 | 
7 | CCCCCOC1CCN(c2nc(C)c(C(=O)N[C@@H](CCN)C(=O)N(C)[C@@H]3C(=O)N[C@@H](C)C(=O)N[C@H](C(=O)NCC#N)Cc4ccc(OCCN)c(c4)-c4cc3ccc4OCCN)c(C)n2)CC1 (racemic) [Compound 317, rac-(8S,11S,14S)-3,18-bis(2-aminoethoxy)-N-(cyanomethyl)-11-methyl-14-[methyl-[rac-(2S)-4-amino-2-[[4,6-dimethyl-2-(4-pentoxy-1-piperidyl)pyrimidine-5-carbonyl]amino]butanoyl]amino]-10,13-dioxo-9,12-diazatricyclo[13.3.1.12,6]icosa-1(18),2(20),3,5,15(19),16-hexaene-8-carboxamide] | 0.047 | 0.5 | 
8 | Cc1nc(-c2ccc(OC3CCCCC3)cc2)nc(C)c1C(=O)N[C@@H](CCCNC(N)=O)C(=O)N(C)[C@@H]1C(=O)N[C@@H](C)C(=O)N[C@H](C(=O)NCC#N)Cc2ccc(OCCN)c(c2)-c2cc1ccc2OCCN [Compound 501, (8S,11S,14S)-3,18-bis(2-aminoethoxy)-N-(cyanomethyl)-14-[[(2S)-2-[[2-[4-(cyclohexoxy)phenyl]-4,6-dimethyl-pyrimidine-5-carbonyl]amino]-5-ureido-pentanoyl]-methyl-amino]-11-methyl-10,13-dioxo-9,12-diazatricyclo[13.3.1.12,6]icosa-1(18),2(20),3,5,15(19),16-hexaene-8-carboxamide] | 0.063 | 1 | 

These reach a lower MIC [1]. Values come first.

Row | MIC [1] [µM] | MIC [2, 3] [µM] | SMILES | MIC ([2]; ATCC25922, Table 6, cation adjusted Mueller Hinton Broth + 0.002% Tween-80, 35° C., 22 hours) [µM]
9 | 0.016 | 0.13 | Cc1nc(-c2ccc(C3CCCCC3)cc2)ncc1C(=O)N[C@@H](CCN)C(=O)N(C)[C@@H]1C(=O)N[C@@H](C)C(=O)N[C@H](C(=O)NCC#N)Cc2ccc(OCCN)c(c2)-c2cc1ccc2OCCN (racemic) [Compound 233, rac-(8S,11S,14S)-3,18-bis(2-aminoethoxy)-N-(cyanomethyl)-11-methyl-14-[methyl-[rac-(2S)-4-amino-2-[[2-(4-cyclohexylphenyl)-4-methyl-pyrimidine-5-carbonyl]amino]butanoyl]amino]-10,13-dioxo-9,12-diazatricyclo[13.3.1.12,6]icosa-1(18),2(20),3,5,15(19),16-hexaene-8-carboxamide] | 
10 | 0.016 | 0.19 | Cc1cc(-c2ccc(C(C)(C)C)cc2F)nc(C)c1C(=O)N[C@@H](CCN)C(=O)N(C)[C@@H]1C(=O)N[C@@H](C)C(=O)N[C@H](C(=O)NCC#N)Cc2ccc(OCCN)c(c2)-c2cc1ccc2OCCN (racemic) [Compound 363, rac-(8S,11S,14S)-3,18-bis(2-aminoethoxy)-N-(cyanomethyl)-11-methyl-14-[methyl-[rac-(2S)-4-amino-2-[[6-(4-tert-butyl-2-fluoro-phenyl)-2,4-dimethyl-pyridine-3-carbonyl]amino]butanoyl]amino]-10,13-dioxo-9,12-diazatricyclo[13.3.1.12,6]icosa-1(18),2(20),3,5,15(19),16-hexaene-8-carboxamide] | 
11 | 0.016 | 0.19 | Cc1nc(-c2ccc(N3CCC(C(C)(C)C)CC3)cc2)nc(C)c1C(=O)N[C@@H](CCN)C(=O)N(C)[C@@H]1C(=O)N[C@@H](C)C(=O)N[C@H](C(=O)NCC#N)Cc2ccc(OCCN)c(c2)-c2cc1ccc2OCCN (racemic) [Compound 320, rac-(8S,11S,14S)-3,18-bis(2-aminoethoxy)-N-(cyanomethyl)-11-methyl-14-[methyl-[rac-(2S)-4-amino-2-[[2-[4-(4-tert-butyl-1-piperidyl)phenyl]-4,6-dimethyl-pyrimidine-5-carbonyl]amino]butanoyl]amino]-10,13-dioxo-9,12-diazatricyclo[13.3.1.12,6]icosa-1(18),2(20),3,5,15(19),16-hexaene-8-carboxamide] | 
12 | 0.0084 | 0.2 | Cc1nc(-c2ccc3c(c2)CCCC3)ncc1C(=O)N[C@@H](CCN)C(=O)N(C)[C@@H]1C(=O)N[C@@H](C)C(=O)N[C@H](C(=O)NCC#N)Cc2ccc(OCCN)c(c2)-c2cc1ccc2OCCN (racemic) [Compound 216, rac-(8S,11S,14S)-3,18-bis(2-aminoethoxy)-N-(cyanomethyl)-11-methyl-14-[methyl-[rac-(2S)-4-amino-2-[(4-methyl-2-tetralin-6-yl-pyrimidine-5-carbonyl)amino]butanoyl]amino]-10,13-dioxo-9,12-diazatricyclo[13.3.1.12,6]icosa-1(18),2(20),3,5,15(19),16-hexaene-8-carboxamide] | 
13 | 0.016 | 0.25 | Cc1nc(-c2ccc(C(C)(C)C)cc2)c(Br)cc1C(=O)N[C@@H](CCN)C(=O)N(C)[C@@H]1C(=O)N[C@@H](C)C(=O)N[C@H](C(=O)NCC#N)Cc2ccc(OCCN)c(c2)-c2cc1ccc2OCCN (racemic) [Compound 401, rac-(8S,11S,14S)-3,18-bis(2-aminoethoxy)-N-(cyanomethyl)-11-methyl-14-[methyl-[rac-(2S)-4-amino-2-[[5-bromo-6-(4-tert-butylphenyl)-2-methyl-pyridine-3-carbonyl]amino]butanoyl]amino]-10,13-dioxo-9,12-diazatricyclo[13.3.1.12,6]icosa-1(18),2(20),3,5,15(19),16-hexaene-8-carboxamide] | 
